Test results reported in the NIST ThermoML archive (doi:10.1021/je049622g).
± gives the expanded uncertainty stated by the source.

Assay: xn = mol fraction of the nth substance listed
Settings: 311 K, Fluid (supercritical or subcritical phases), Pulse-echo method

Q: Which speed of sound (2068 kPa, x2 = 0.894) does the source give for `CCCC` [butane] + C here?
A: The speed of sound was 381.6 ± 1 m/s.

Q: And the speed of sound (2758 kPa, x2 = 0.894)?
A: The speed of sound was 378.5 ± 1 m/s.

Q: What about the speed of sound (3447 kPa, x2 = 0.894) of the same compound?
A: Its speed of sound is 375.5 ± 0.9 m/s.

Q: And the speed of sound (3930 kPa, x2 = 0.158)?
A: The speed of sound was 760.1 ± 1.7 m/s.

Q: What about the speed of sound (3999 kPa, x2 = 0.158) of the same compound?
A: Its speed of sound is 760.7 ± 1.7 m/s.

Q: And the speed of sound (4137 kPa, x2 = 0.158)?
A: The speed of sound was 762.3 ± 1.7 m/s.

Q: What about the speed of sound (4137 kPa, x2 = 0.894) of the same compound?
A: Its speed of sound is 372.7 ± 0.9 m/s.

Q: What about the speed of sound (4826 kPa, x2 = 0.158) of the same compound?
A: Its speed of sound is 778.7 ± 1.7 m/s.

Q: What about the speed of sound (4826 kPa, x2 = 0.894) of the same compound?
A: The speed of sound was 370.1 ± 0.9 m/s.

Q: And the speed of sound (5516 kPa, x2 = 0.158)?
A: The speed of sound was 793.5 ± 1.7 m/s.

Q: What about the speed of sound (5516 kPa, x2 = 0.894) of the same compound?
A: Its speed of sound is 368 ± 0.9 m/s.

Q: What about the speed of sound (6205 kPa, x2 = 0.158) of the same compound?
A: Its speed of sound is 805.6 ± 1.7 m/s.

Q: What about the speed of sound (6205 kPa, x2 = 0.894) of the same compound?
A: The speed of sound was 366.4 ± 0.9 m/s.

Q: And the speed of sound (6895 kPa, x2 = 0.158)?
A: Its speed of sound is 817.6 ± 1.8 m/s.

Q: And the speed of sound (6895 kPa, x2 = 0.894)?
A: The speed of sound was 365.2 ± 0.9 m/s.

Q: What about the speed of sound (7584 kPa, x2 = 0.894) of the same compound?
A: Its speed of sound is 364.8 ± 0.9 m/s.

Q: What about the speed of sound (8274 kPa, x2 = 0.894) of the same compound?
A: The speed of sound was 365.1 ± 0.9 m/s.

Q: What about the speed of sound (8963 kPa, x2 = 0.894) of the same compound?
A: The speed of sound was 366 ± 0.9 m/s.

Q: And the speed of sound (9653 kPa, x2 = 0.894)?
A: The speed of sound was 367.8 ± 0.9 m/s.

Q: And the speed of sound (10342 kPa, x2 = 0.158)?
A: The speed of sound was 866 ± 1.9 m/s.

Q: What about the speed of sound (10342 kPa, x2 = 0.894) of the same compound?
A: Its speed of sound is 370.3 ± 0.9 m/s.

Q: And the speed of sound (11032 kPa, x2 = 0.894)?
A: Its speed of sound is 373.7 ± 0.9 m/s.

Q: And the speed of sound (11721 kPa, x2 = 0.894)?
A: The speed of sound was 378 ± 1 m/s.

Q: And the speed of sound (12411 kPa, x2 = 0.894)?
A: Its speed of sound is 383.1 ± 1 m/s.

Q: What about the speed of sound (13100 kPa, x2 = 0.894) of the same compound?
A: The speed of sound was 388.9 ± 1 m/s.

Q: What about the speed of sound (13128 kPa, x2 = 0.724) of the same compound?
A: The speed of sound was 314.6 ± 0.9 m/s.

Q: And the speed of sound (13148 kPa, x2 = 0.724)?
A: Its speed of sound is 316.5 ± 0.9 m/s.

Q: What about the speed of sound (13231 kPa, x2 = 0.724) of the same compound?
A: Its speed of sound is 323.7 ± 0.9 m/s.

Q: And the speed of sound (13307 kPa, x2 = 0.724)?
A: The speed of sound was 329.7 ± 0.9 m/s.

Q: What about the speed of sound (13472 kPa, x2 = 0.724) of the same compound?
A: The speed of sound was 344 ± 0.9 m/s.

Q: What about the speed of sound (13790 kPa, x2 = 0.158) of the same compound?
A: Its speed of sound is 906.3 ± 1.9 m/s.

Q: And the speed of sound (13790 kPa, x2 = 0.894)?
A: Its speed of sound is 395.6 ± 1 m/s.

Q: What about the speed of sound (13845 kPa, x2 = 0.724) of the same compound?
A: Its speed of sound is 366.1 ± 0.9 m/s.

Q: What about the speed of sound (14479 kPa, x2 = 0.724) of the same compound?
A: Its speed of sound is 395.6 ± 1 m/s.

Q: What about the speed of sound (14479 kPa, x2 = 0.894) of the same compound?
A: Its speed of sound is 402.9 ± 1 m/s.

Q: And the speed of sound (15168 kPa, x2 = 0.724)?
A: Its speed of sound is 420.7 ± 1 m/s.

Q: What about the speed of sound (15168 kPa, x2 = 0.894) of the same compound?
A: Its speed of sound is 410.8 ± 1 m/s.

Q: And the speed of sound (15858 kPa, x2 = 0.724)?
A: Its speed of sound is 443.6 ± 1.1 m/s.

Q: What about the speed of sound (15858 kPa, x2 = 0.894) of the same compound?
A: Its speed of sound is 419.4 ± 1 m/s.

Q: And the speed of sound (16547 kPa, x2 = 0.724)?
A: Its speed of sound is 464.8 ± 1.1 m/s.

Q: What about the speed of sound (16547 kPa, x2 = 0.894) of the same compound?
A: Its speed of sound is 428.4 ± 1 m/s.

Q: And the speed of sound (17237 kPa, x2 = 0.724)?
A: Its speed of sound is 484.4 ± 1.1 m/s.

Q: And the speed of sound (17237 kPa, x2 = 0.894)?
A: The speed of sound was 438 ± 1.1 m/s.
